Assay results as given in patent US12391962B2, “Targeting peptide to deliver a compound to oocytes” (THE PENN STATE RESEARCH FOUNDATION, priority 2017, dated 2025).
Several values for one entry are separate records, joined by “and”; a condition that tells them apart may be missing. Equal entries are not always repeated. Entries after “also recorded” stand apart in the source; their conditions may differ.

Assays:
kmo gene = test: Paternal allele knockout by adult female injection: white eye females x wild-type males; type: in vivo, Aedes aegypti; details: EER co-injected with RNP; for altered offspring with the endosomal release reagent: females injected at 48-52 h PBF; for mosaic offspring per injected females with the endosomal release reagent: 48-52 h PBF, 1/20 females
Text: After mating as described in the above, females (generation −1; G−1) were blood fed and injected with P2C-Cas9 RNPs and EERs. Resulting G0 offspring were screened for kmo gene editing phenotypes (white or mosaic eyes). Genomic DNA from identified individuals was extracted using DNeasy blood and tissue kits (Qiagen) and the region spanning both kmo 460 and 519* sites amplified by PCR using primers ZA2210 (5′TTC-AAG-ACC-AGG-CCT-CAA-TC3′) (SEQ ID NO: 35) and KmR1 (5′TCA-CTA-AAC-TCA-GCC-AGT-ATC-CTA-T3′) (SEQ ID NO: 36) and cloned into the pJET1.2 vector. A minimum of 6 clones per individual were randomly selected and sequenced.
In order to estimate the frequency of paternal gene editing, homozygous Wh-Iso8-kmo^460 females outcrossed to homozygous wild type males were injected at 48-52 h PBF. […] The region spanning the target sites from the mosaic individual collected from saponin treatment was cloned and sequenced (FIG. 10A). […] The genomic DNA from the monensin and spontaneous white eye individuals were not of suitable quality for PCR and cloning.

recombinant Cas9 = target: T1, recombinant Cas9 (Streptococcus pyogenes serotype M1, UniProt Q99ZW2); test: In vitro DNA cleavage assay; type: biochemical; details: gel separation
T1 construct: vector-derived additions of pET28a-Cas9-cys (the plasmid name implies an added Cys); made in house; host or cells: E. coli BL21 and Rosetta2 (DE3) pLysS
Method: Reactions were performed for 1 h at 37° C. and diagnostic bands visualized by electrophoresis in a 1% agarose/TAE gel.

Ae. aegypti females = test: LD50 of endosomal escape reagents injected into the hemolymph 24h PBF; details: injected into the hemolymph of females 24h PBF; 100 females injected
Bemisia tabaci ovaries = test: Transduction of mCherry into ovaries with vitellogenin-derived targeting peptide; type: in vivo; details: injection into adult females
Text: (§1) Several targeting peptides, including […] (Bemisia tabaci, SEQ ID NO: 26), […] (Bombus impatiens, SEQ ID NO: 27), […] (Ixodes scapularis, SEQ ID NO: 28), or […] (Danio rerio, SEQ ID NO: 29), were further validated. The DNA encoding these peptides were synthesized, fused to the fluorescent reporter proteins GFP or mCherry (with a HIS tag to aid in purification), and cloned into pET28. The plasmids were then transformed into E. coli BL21 (NEB) and Rosetta2™ (DE3) pLysS competent cells, with the transformation being verified by […].
(§2) To induce expression of the recombinant protein, a preculture was grown overnight at 30° C. in 50 mL of Luria Broth (LB) supplemented with […] chloramphenicol and […] kanamycin. After 12 hours, 10 mL of preculture was transferred to 900 mL of LB supplemented with the same antibiotics, incubated at 37° C. until OD=0.6. Then 0.05 mM isopropyl β-D-1-thiogalactopyranoside (IPTG) was added and the culture incubated overnight at 30° C.
(§3) Cells were spun down at >10,000×g for 15 min, resuspended in 50 mL lysis buffer (20 mM Tris-HCl, pH 8.0, 300 mM NaCl, 20 mM imidazole), placed at −80° C. overnight and incubated with lysozyme (1 mg/ml) and 100 ppm of […] (PMSF) for 30 min at 4° C. The suspension was sonicated 5 times at 60% duty 5 seconds pulse 5 seconds rest (two aliquots each 20 mL), centrifuged at 13,000×g for 30 min, the supernatant removed and incubated with Ni-NTA beads (Qiagen) with rotation at 4° C. overnight. Beads were washed 3 times with 10 mL lysis buffer and eluted with 1 mL elution buffer (20 mM Tris-HCl, pH 8.0, 300 mM NaCl, 250 mM imidazole) 10 times. Eluted protein was dialyzed in a Slide-A-Lyzer dialysis cassette (Thermo Fisher) for two hours in dialysis buffer (50 mM Tris-HCl, pH 8.0, 300 mM KCl, 0.1 mM EDTA, 0.5 mM PMSF) and buffer changed every 2 hours, for 2 times, then left overnight at 4° C. with gentle agitation in fresh buffer, Protein purity was visualized by SDS-PAGE and concentration estimated using Bradford assay. […]

Danio rerio ovaries = test: Transduction of EGFP into ovaries with vitellogenin-derived targeting peptide; type: in vivo; details: injection into adult females
Text: as §1, §2
Cells were spun down at >10,000×g for 15 min, resuspended in 50 mL lysis buffer (20 mM Tris-HCl, pH 8.0, 300 mM NaCl, 20 mM imidazole), placed at −80° C. overnight and incubated with lysozyme (1 mg/ml) and 100 ppm of […] (PMSF) for 30 min at 4° C. […]

[1] = system: Ixodes scapularis ovaries; test: Transduction of mCherry into ovaries with vitellogenin-derived targeting peptide; type: in vivo; details: injection into adult females
Text: as §1, §2, §3

[2] = system: Anopheles gambiae oocytes; test: Ovary uptake of EGFP fusion proteins after injection into blood-fed females (fluorescence microscopy); type: in vivo
Method: To show DmYP1 (or fragments thereof) act as suitable ligands to deliver protein cargo into mosquito oocytes, a DmYP1-EGFP, or fragments of DmYP1-EGFP, fusion protein was expressed and injected into the thorax of Anopheles gambiae females 12 and 24 h post-blood feeding (PBF).
Injections were performed with an aspirator tube assembly (A5177, Sigma) fitted with a glass capillary needle. Adult females were immobilized at 4° C. following a bloodmeal and kept on ice during injection. Females were injected intrathoracically until no additional fluid would enter, at an approximate volume of 200 nl per female. To visually confirm EGFP in the ovaries following injection, ovaries were dissected, mounted in saline buffer mixed with SlowFade Gold® antifade reagent (Invitrogen), covered with a coverslip and imaged on an Olympus BX41 epifluorescent microscope. Negative controls were injected with recombinant EGFP lacking a targeting ligand.
A deletion analysis of the DmYP1 protein was conducted to identify the smaller region that efficiently transduced cargo into mosquito ovaries. Three portions of approximately 120 amino acids (FIG. 1) were encoded on an expression plasmid linked to EGFP via a Glycine-Serine linker. Fusion proteins included the DmYP1 secretion signal at the N-terminus. The construct was inserted into the plasmid pAc5-STABLE1-Neo under control of the Drosophila Actin5C promoter. Plasmids were transfected into Drosophila S2 cells using Lipofectamine® LTX WITH Plus™ Reagent (ThermoFisher). Cell culture supernatant was collected 72 hours post-transfection, concentrated 100× using Amicon® and Centricon® Plus-70 centrifugal filter devices (Millipore) and injected into female An. gambiae 12 and 24 hours PBF. Ovaries were dissected 12, 24 and 48 h hours post-injection, dissected and visualized for EGFP fluorescence. EGFP fusion protein fused to the full length DmYP1 protein (439 amino acids) was used as a positive control, while recombinant EGFP without a targeting ligand was used as a negative control.

B. tabaci white gene = test: Knockout of the B. tabaci white gene by ReMOT Control (adult female injection); type: in vivo, Bemisia tabaci
Method: The females were injected and placed on a piece of soybean leaflet in a petri dish with a moist paper towel wrapped around the stem and another paper towel on the bottom plate to prolong the life of the leaflet. Water and liquid fertilizer were added as needed. Females were removed from the leaflet 2 weeks post injection. The petri dishes were incubated at 28° C., 16L/8D cycle, in a humidified Heratherm IMH750-S reach-in chamber, and the progeny of injected females screened visually for altered eye color in nymphs or adults using an Olympus SZX7 stereomicroscope. Mutations in insects showing altered eye color were confirmed by PCR using PHIRE Tissue Direct PCR Master Mix (Thermo Fischer Scientific), the amplicon was cloned into pJET1.2, and clones were submitted for Sanger sequencing.
For proof of principle gene editing experiments, we chose the white gene, which is an ABC transporter protein responsible for transport of ommochrome pigments into the eyes.

mealybug ovaries = test: P2C-mediated delivery of EGFP to mealybug ovaries; type: in vivo; details: procedure of Example 1
Method: To determine if P2C could be used in to deliver cargo in species other than mosquito, it was tested on mealybugs using the procedure of Example 1. […] Therefore, P2C is an effective targeting molecule in more than just mosquitoes.

Aedes aegypti ovaries = test: Transduction of mCherry into ovaries with vitellogenin-derived targeting peptide; type: in vivo; details: injection into adult females
Bombus impatiens ovaries = test: as above; type: in vivo; details: injection into adult females
Text: as §1, §2, §3

[3] = injection 12 h PBF, Total of 2 replicates
[4] = injection 24 h PBF, Total of 2 replicates

T1 sequence (Q99ZW2 whole entry): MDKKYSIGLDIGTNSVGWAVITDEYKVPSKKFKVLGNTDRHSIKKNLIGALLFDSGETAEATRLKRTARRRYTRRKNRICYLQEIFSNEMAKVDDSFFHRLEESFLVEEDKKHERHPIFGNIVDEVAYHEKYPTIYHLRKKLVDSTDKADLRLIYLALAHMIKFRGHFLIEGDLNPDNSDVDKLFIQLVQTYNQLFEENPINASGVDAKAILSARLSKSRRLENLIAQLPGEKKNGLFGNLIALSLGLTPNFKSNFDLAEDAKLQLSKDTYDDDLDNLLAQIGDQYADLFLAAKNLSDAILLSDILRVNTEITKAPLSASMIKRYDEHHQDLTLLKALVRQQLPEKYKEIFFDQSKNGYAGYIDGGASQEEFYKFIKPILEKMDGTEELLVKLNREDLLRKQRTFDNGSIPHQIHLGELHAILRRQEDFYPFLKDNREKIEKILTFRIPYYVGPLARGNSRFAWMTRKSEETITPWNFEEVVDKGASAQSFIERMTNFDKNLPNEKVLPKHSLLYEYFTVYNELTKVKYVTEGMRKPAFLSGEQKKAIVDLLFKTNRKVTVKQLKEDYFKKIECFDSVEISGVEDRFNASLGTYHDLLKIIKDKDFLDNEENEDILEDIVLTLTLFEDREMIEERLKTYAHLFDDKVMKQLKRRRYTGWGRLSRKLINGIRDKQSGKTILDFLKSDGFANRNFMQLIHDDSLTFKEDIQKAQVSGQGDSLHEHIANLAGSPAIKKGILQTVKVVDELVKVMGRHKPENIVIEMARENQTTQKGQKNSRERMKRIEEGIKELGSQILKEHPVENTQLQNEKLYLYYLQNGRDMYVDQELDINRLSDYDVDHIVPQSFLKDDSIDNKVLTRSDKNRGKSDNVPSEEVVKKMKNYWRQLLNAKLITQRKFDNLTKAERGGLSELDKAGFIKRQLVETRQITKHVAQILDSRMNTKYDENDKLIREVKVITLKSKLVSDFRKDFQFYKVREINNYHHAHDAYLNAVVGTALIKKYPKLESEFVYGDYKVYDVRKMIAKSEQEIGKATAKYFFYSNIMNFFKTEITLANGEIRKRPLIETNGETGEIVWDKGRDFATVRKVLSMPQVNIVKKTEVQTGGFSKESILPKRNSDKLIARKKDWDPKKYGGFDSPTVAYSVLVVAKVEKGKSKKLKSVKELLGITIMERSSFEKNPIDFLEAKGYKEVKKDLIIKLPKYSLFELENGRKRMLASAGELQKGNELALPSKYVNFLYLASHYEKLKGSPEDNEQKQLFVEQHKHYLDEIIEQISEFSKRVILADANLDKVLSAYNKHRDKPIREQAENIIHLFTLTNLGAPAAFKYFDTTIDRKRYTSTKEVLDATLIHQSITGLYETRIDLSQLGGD

Cl.N [Ammonium Chloride]
altered offspring with the endosomal release reagent (kmo gene): no altered offspring

CCN(CC)CCCC(C)Nc1ccnc2cc(Cl)ccc12 (stereo not drawn) [Chloroquine]
effect on Cas9 cleavage function in vitro (recombinant Cas9): did not affect Cas9 cleavage function in vitro
effect on Cas9 cleavage function in vitro (recombinant Cas9; listed as chloroquine): not inhibited
altered offspring with the endosomal release reagent (kmo gene): no altered offspring

CC[C@@]1([C@@H]2O[C@@H]([C@H]3O[C@@](O)(CO)[C@H](C)C[C@@H]3C)C[C@@H]2C)CC[C@H]([C@]2(C)CC[C@]3(C[C@H](O)[C@@H](C)[C@@H]([C@@H](C)[C@@H](OC)[C@H](C)C(=O)O)O3)O2)O1 [Monensin]
LD50 (Ae. aegypti females): 1.0 mM
mosaic offspring per injected females with the endosomal release reagent (kmo gene): 5%

O=C(N/N=C/c1ccc(O)c(O)c1)c1cc2ccccc2cc1O [dynasore]
altered offspring with the endosomal release reagent (kmo gene): no altered offspring

DIVKTTNY
transduction of mCherry protein into ovaries (Bemisia tabaci ovaries): transduced into developing vitellogenic eggs

IVTKSKDL
transduction of EGFP protein into ovaries (Danio rerio ovaries): transduced into developing vitellogenic eggs

NFTKTKNY
transduction of mCherry protein into ovaries [1]: transduced into developing vitellogenic eggs

NLQQQRQHGKNGNQDYQDQSNEQRKNQRTSSEEDYSEEVKN (Drosophila melanogaster) [P2C]
localization of transduced EGFP ([2]; embryo development): observed in yolk granules (arrows) throughout embryo development
ovary uptake / delivery of EGFP in deletion analysis of DmYP1 ([2]; fragments expressed as EGFP fusion proteins): contained the RBR; also recorded: fully sufficient to deliver EGFP to Anopheles oocytes
dose dependence of P2C-mediated transduction of EGFP ([2]; injected 12 h, ovaries dissected 24 h PBF): dose-dependent
gene editing outcome by targeting peptide (in words) (B. tabaci white gene; Cas9 RNP injections, with or without saponin): did not function robustly; also recorded: did not result in any visibly edited offspring; also recorded: did not generate knockouts
delivery of EGFP into eggs (mealybug ovaries): able to specifically deliver EGFP into the developing vitellogenic eggs, but not the immature eggs

QVTKTQNF
transduction of mCherry protein into ovaries (Aedes aegypti ovaries): transduced into developing vitellogenic eggs

RKSKNFDK
transduction of mCherry protein into ovaries (Bombus impatiens ovaries): transduced into developing vitellogenic eggs

Saponin [reference compound]
LD50 (Ae. aegypti females): 0.024 mM
effect of saponin as endosome escape reagent on editing (B. tabaci white gene; higher concentrations (8, 16 μg/mL)): inhibitory; also recorded: detrimental to the process
mosaic offspring per injected females with the endosomal release reagent (kmo gene): 5%

B1: DmYP1-EGFP: fusion protein of full length Drosophila melanogaster Yolk Protein 1 (439 amino acids) with EGFP (protein)
chain: PNGRMDNSVNQALKPSQWLSGSQLEAIPALDDFTIERLENMNLERGAELLQQVYHLSQIHHNVEPNYVPSGIQVYVPKPNGDKTVAPLNEMIQRLKQKQNFGEDEVTIIVTGLPQTSETVKKATRKLVQAYMQRYNLQQQRQHGKNGNQDYQDQSNEQRKNQRTSSEEDYSEEVKNAKTQSGDIIVIDLGSKLNTYERYAMLDIEKTGAKIGKWIVQMVNELDMPFDTIHLIGQNVGAHVAGAAAQEFTRLTGHKLRRVTGLDPSKIVAKSKNTLTGLARGDAEFVDAIHTSVYGMGTPIRSGDVDFYPNGPAAGVPGASNVVEAAMRATRYFAESVRPGNERSFPAVPANSLQQYKQNDGFGKRAYMGIDTAHDLEGDYILQVNPKSPFGRNAPAQKQSSYHGVHQAWNTNQDSKDYQ
modifications: left off: small tags and cut ends; large carriers
notes: fusion protein of full length Drosophila melanogaster Yolk Protein 1 (439 amino acids) with EGFP
% Follicles (Efficiency) ([2]; injection 12 h PBF): 100% and 98%
N Follicles with EGFP ([2]; injection 12 h PBF): 243 and 381
N (showing EGFP in follicles) ([2]; injection 12 h PBF, 20 females injected per replicate): 17 and 19
% Follicles (Efficiency) [2, 3]: 99.7%^
N Follicles with EGFP [2, 3]: 624
N (showing EGFP in follicles) ([2]; injection 12 h PBF, Total of 2 replicates, 40 injected): 36
% Follicles (Efficiency) ([2]; injection 24 h PBF): 98% and 99%
N Follicles with EGFP ([2]; injection 24 h PBF): 245 and 197
N (showing EGFP in follicles) ([2]; injection 24 h PBF, 20 females injected per replicate): 18 and 17
% Follicles (Efficiency) [2, 4]: 98.2%^
N Follicles with EGFP [2, 4]: 442
N (showing EGFP in follicles) ([2]; injection 24 h PBF, Total of 2 replicates, 40 injected): 35
primary oocytes with EGFP visualized ([2]; regardless of the timing of the injection, ovaries dissected 24-72 h PBF): 90-100%
